Our source for the IC50 values is publication PMC5985439, “Multiple Resistance Evolution in Bipyridylium-Resistant Epilobium ciliatum After Recurrent Selection” (Frontiers in Plant Science, 2018).

Holding throughout (format): biochemical, Epilobium ciliatum
Experiment [1] deals with T1, glutamine synthetase (GS), S biotype.
T1 construct: gene GS1; native isoenzymes in crude leaf protein extract (rosette stage); isoforms not resolved
Briefly: GS activity, crude leaf protein extract. The conditions noted are these: read-out: I50.

Experiment [2] addresses T2, glutamine synthetase (GS), R2 biotype.
T2 construct: gene GS1; native isoenzymes in crude leaf protein extract (rosette stage)
Briefly: GS activity, crude leaf protein extract. The conditions noted are these: stated gain, read-out: I50.

For experiment [3], the target named is T3, glutamine synthetase (GS), R1 biotype.
T3 construct: gene GS1; native isoenzymes in crude leaf protein extract (rosette stage); isoforms not resolved; described as glufosinate-sensitive
The experiment can be described thus: GS activity, crude leaf protein extract. The conditions noted are these: read-out: I50.

Experiment [4] has as its system T4, acetolactate synthase (ALS), S biotype.
T4 construct: native enzyme in de-salted crude extract of young leaves
The experiment can be described thus: ALS activity, colorimetric acetoin at […] nm, de-salted leaf extract. The conditions noted are these: read-out: I50.

Turning to `CP(=O)(O)CCC(N)C(=O)O` (stereo not shown) [glufosinate], the IC50 in experiment [1] stood at 18.5 µM; in experiment [2], 1250 µM; in experiment [3] it was 25.8 µM.
As for `COc1cc(OC)nc(NC(=O)NS(=O)(=O)c2ncccc2C(F)(F)F)n1` [flazasulfuron], the IC50 in experiment [4] was 30.9 µM.
